Measured values published in patent US20090170886A1 (Pfizer Inc, priority 2005, published 2009).

biological target: T1, androgen receptor in MDA-MB453-MMTV clone 54-19 cells (Homo sapiens, UniProt P10275); assay: AR Antagonist Cell Assay (MMTV-luciferase reporter, DHT-induced); assay type: cell-based; settings: MDA-MB453-MMTV clone 54-19, 100 pM DHT, 17 hr; mean of multiple tests
T1 sequence (P10275 1-920 Q868H): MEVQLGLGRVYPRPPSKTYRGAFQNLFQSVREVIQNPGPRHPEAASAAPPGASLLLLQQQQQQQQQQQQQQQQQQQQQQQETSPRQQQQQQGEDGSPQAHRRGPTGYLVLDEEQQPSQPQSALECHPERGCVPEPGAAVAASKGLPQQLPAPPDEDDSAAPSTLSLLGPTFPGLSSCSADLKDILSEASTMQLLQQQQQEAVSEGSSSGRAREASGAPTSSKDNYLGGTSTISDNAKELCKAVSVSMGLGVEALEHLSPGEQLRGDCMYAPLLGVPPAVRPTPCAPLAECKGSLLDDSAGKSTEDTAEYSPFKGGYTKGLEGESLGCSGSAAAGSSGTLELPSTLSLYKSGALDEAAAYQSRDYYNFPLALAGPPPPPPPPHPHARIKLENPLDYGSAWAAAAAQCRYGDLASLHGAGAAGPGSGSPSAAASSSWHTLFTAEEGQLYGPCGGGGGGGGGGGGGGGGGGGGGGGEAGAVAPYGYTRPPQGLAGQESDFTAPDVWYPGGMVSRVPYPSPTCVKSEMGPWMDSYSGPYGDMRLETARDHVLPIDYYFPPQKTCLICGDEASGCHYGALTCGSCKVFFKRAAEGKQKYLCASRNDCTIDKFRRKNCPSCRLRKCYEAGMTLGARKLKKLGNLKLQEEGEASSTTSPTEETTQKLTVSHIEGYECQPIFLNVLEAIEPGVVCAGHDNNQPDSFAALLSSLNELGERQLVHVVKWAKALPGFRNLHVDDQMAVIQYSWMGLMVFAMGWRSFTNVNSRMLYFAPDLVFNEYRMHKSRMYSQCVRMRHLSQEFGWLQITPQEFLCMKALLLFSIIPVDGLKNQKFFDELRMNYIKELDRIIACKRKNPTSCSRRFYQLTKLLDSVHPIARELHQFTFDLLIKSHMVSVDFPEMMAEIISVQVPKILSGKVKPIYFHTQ
In short: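 MDA-MB453 cells stably carrying an ARE-containing MMTV-luciferase reporter, in phenol red-free medium with 1% charcoal-treated serum, preincubated 30 min with compound (0.32-1000 nM), then stimulated with 100 pM DHT for 17 h at 37 °C. Luminescence read; percent inhibition of DHT fold induction.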

**Q.** Which IC50 does the source give for CC(C)CC(Oc1ccc(C#N)c(C(F)(F)F)c1)c1cccc(O)c1 (single isomer, unassigned; (+)) [Example 21, (+)4-[1-(3-Hydroxyphenyl)-3-methylbutoxy]-2-(trifluoromethyl)benzonitrile] here?
**A.** 79 nM

**Q.** C=CCC(Oc1ccc(C#N)c(C(F)(F)F)c1)c1cccc(O)c1 (single isomer, unassigned; (-)) [Example 19, (−)4-{[1-(3-Hydroxyphenyl)but-3-enyl]oxy}-2-(trifluoromethyl)benzonitrile] was tested. Which IC50 did it give?
**A.** 34 nM

**Q.** With CCC(Oc1ccc(C#N)c(C(F)(F)F)c1)c1ccccn1 (stereo not drawn) [Example 79, 4-(1-Pyridin^−2-yl-propoxy)-2-trifluoromethyl-benzonitrile] as the compound, how does the IC50 read?
**A.** 27.1 nM

**Q.** Which IC50 does the source give for Cc1ccc(C(CC(C)C)Oc2ccc(C#N)c(C(F)(F)F)c2)cn1 (stereo not drawn) [Example 89, 4-[3-Methyl-1-(6-methyl-pyridin-3-yl)-butoxy]-2-trifluoromethyl-benzonitrile] here?
**A.** 56 nM

**Q.** How did the IC50 turn out when CC(C)CC(Oc1ccc(C#N)c(C(F)(F)F)c1)c1cccnc1 (stereo not drawn) [Example 88, 4-(3-Methyl-1-pyridin-3-yl-butoxy)-2-trifluoromethyl-benzonitrile] was run?
**A.** 50 nM

**Q.** Which IC50 does the source give for CC(Oc1ccc(C#N)c(C(F)(F)F)c1)c1cncc(O)c1 (single isomer, unassigned; (+)) [Example 74, (+)4-[1-(5-Hydroxypyridin-3-yl)ethoxy]-2-(trifluoromethyl)benzonitrile] here?
**A.** 111 nM

**Q.** How did the IC50 turn out when COc1cccc(C(C)Oc2ccc(C#N)c(C(F)(F)F)c2)n1 (stereo not drawn) [Example 80, 4-[1-(6-Methoxy-pyridin-2-yl)-ethoxy]-2-trifluoromethyl-benzonitrile] was run?
**A.** 152 nM

**Q.** For N#Cc1ccc(OCc2cccc(O)c2)cc1C(F)(F)F [Example 6, 4-[(3-Hydroxybenzyl)oxy]-2-(trifluoromethyl)benzonitrile], which IC50 is on record?
**A.** 6 nM

**Q.** How did the IC50 turn out when CC(Oc1ccc(C#N)c(C(F)(F)F)c1)c1cccc(O)c1 (single isomer, unassigned; (-)) [Example 9, (−)-4-[1-(3-Hydroxyphenyl)ethoxy]-2-(trifluoromethyl)benzonitrile] was run?
**A.** 13 nM

**Q.** With CC(Oc1ccc(C#N)c(C(F)(F)F)c1)c1ccccc1 (racemic) [Example 1, 4-(1-Phenyl-ethoxy)-2-trifluoromethyl-benzonitrile] as the compound, how does the IC50 read?
**A.** 90 nM

**Q.** For CCCC(Oc1ccc(C#N)c(C(F)(F)F)c1)c1cccc(O)c1 (racemic) [Example 14, 4-[1-(3-Hydroxyphenyl)butoxy]-2-(trifluoromethyl)benzonitrile], which IC50 is on record?
**A.** 36 nM

**Q.** CCCC(Oc1ccc(C#N)c(C(F)(F)F)c1)c1cccc(O)c1 (single isomer, unassigned; (+)) [Example 15, (+)4-[1-(3-Hydroxyphenyl)butoxy]-2-(trifluoromethyl)benzonitrile] was tested. Which IC50 did it give?
**A.** 102 nM
